These results are taken from PubChem BioAssay (NCI).

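Protocol summary: plate cells (96-well), add compound at 5 concentrations, incubate 48 h, interpolate endpoints linearly. TGI is the concentration that stops growth completely.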

Test systems include DMS 273 small cell lung; M19-MEL melanoma; XF 498 CNS; LXFL 529 NSCLC; HOP-18 NSCLC.
Common to all, as to assay: growth of human tumour cells (NCI), 48 h

`CC(=O)c1ccc(NC(=O)/C(=N\NC(N)=O)C(C#N)CC(C)(C)C=O)cc1` (centres undefined): the TGI with DMS 273 small cell lung, in the experiment on M19-MEL melanoma, with XF 498 CNS and in the experiment with LXFL 529 NSCLC was over 100 µM each time.

Regarding `Cc1ccc(NC(=O)c2cccc([N+](=O)[O-])c2O)c(C)c1`, the TGI was over 100 µM in the experiment with M19-MEL melanoma, 6.44 µM in the experiment on HOP-18 NSCLC and over 100 µM in the experiment with LXFL 529 NSCLC.

On to `COCC(=O)[C@]1(O)Cc2c(O)c3c(c(O)c2[C@@H](OC2CC(N)C(O)C(C)O2)C1)C(=O)c1c(OC)cccc1C3=O` (some centres undefined), for which the results for the TGI in the experiment on DMS 273 small cell lung, with M19-MEL melanoma and in the experiment on LXFL 529 NSCLC were 0.603 µM, 0.339 µM and 2.11 µM, respectively.

For the molecule `O=C(c1ccc(Cl)cc1)N(C(=S)N1CCN(c2ccccn2)CC1)c1ccccc1`, the TGI with DMS 273 small cell lung, in the experiment on M19-MEL melanoma, in the experiment on HOP-18 NSCLC and with LXFL 529 NSCLC was over 100 µM throughout.
